One substance from patent US12070037B2, “Methods and compositions for bioprotection of potatoes from Streptomyces scabies” (THE ROYAL INSTITUTION FOR THE ADVANCEMENT OF …, priority 2018, dated 2024) can be followed below.

Some results are limits rather than exact numbers.

This assay relates to Streptomyces scabies. The assay is described as follows: agar well diffusion assay. It is filed as cell-based. The protocol:
In addition, the antimicrobial activity of the crude extracts from Bacillus pumilus and Bacillus subtilis was assessed via agar well diffusion assay. A spore suspension of Streptomyces scabies was overlaid on PDA and the plates were allowed to air dry. A 50 μL drop of crude extracts from Bacillus pumilus (top), Bacillus pumilus (right), and Bacillus subtilis (left) were poured into agar well and a control solution was pour on the bottom of the agar well.
The concentrated material (crude extract) in the vessel was suspended in 10% acetonitrile (AcN/H2O, v/v) and frozen at −20° C. until further analysis. The crude extract was centrifuged (Sorvall Biofuge Pico, Mandel Scientific, ON, Canada) at 13,000 rpm for 30 min to remove insoluble particles. The supernatant was filter sterilized (PVDF, […], Fisher Scientific, Montreal, Canada) and tested for biological activity against Streptomyces scabies. The filtered extract was then loaded onto a C18 column (Restek™, Fisher Scientific, Montreal, Canada) and eluted with 20 mL of 10%, 20%, 40%, 60%, 80% and 100% acetonitrile and the fractions were collected. The eluted fractions under various concentrations of acetonitrile were lyophilized (SNL216V, Savant Instruments Inc., NY, USA), suspended in sterilized distilled water and tested for biological activity against Streptomyces scabies. The fraction showing an inhibition zone against Streptomyces scabies was selected for further fractionation by HPLC. The active fraction was stored in sterilized vials at 4° C. prior to HPLC analysis.
The antimicrobial activities of Micrococcin P1 at various concentrations were assessed via agar well diffusion assay. A spore suspension of Streptomyces scabies was overlaid on PDA and the plates were allowed to air dry. A 50 μL drop of Micrococcin P1 diluted in various concentrations were applied into agar well.

As to Micrococcin P1, where the note is “per well, in 50 μL, PDA, 3 days 30° C.”, the “minimal amount giving growth inhibition zones” value is listed as at least 31.25 ng. In addition, the “antimicrobial activity of the standard” value (tested for biological activity) is listed as “showed antimicrobial activity against Streptomyces scabies”. In addition, the “dose dependence of antibacterial activities” value (up to 5 mg/L (4.37 μM), highest concentration tested) is “increased proportional to the Micrococcin P1 concentrations”.
